US20230346948A1, “Lipid conjugated peptide inhibitors of PICK1” (University of Copenhagen, priority 2020, published 2023)
Entries after “also recorded” stand apart in the source; their conditions may differ.

Experiments:
[1] = tested on: thermal hypersensitivity (CFA model); test: Hargreaves test, thermal hypersensitivity in CFA model; assay type: in vivo, mice; settings: s.c. 10 μmol/kg
Description: Inflammatory pain (CFA model): Animals were habituated to the experimental room for a minimum of 60 min before initiation of the experiment. Hargreave's test was performed by application of radiant heat light to the plantar surface of both hindpaw. The response latency was measured by an automated readout (Ugo Basile, Italy). The baseline paw withdrawal latency of both hind paws in response to radiant heat stimulation was performed before CFA injection, and no difference between the two pre-selected groups was found. The inflammatory pain was induced by […] of 50 μL undiluted Complete Freund's Adjuvant (CFA) ([…], Sigma) unilaterally into the intraplantar surface of the right hind paw, whereas control mice were injected with the same amount of 0.9% saline (B. Braun, Germany). All intraplantar injections were performed with and insulin needle (0.3 mL BD Micro-Fine) while the animal was under isoflurane anesthesia (2%) for maximum 60 seconds. On day 3 after CFA injection, mice were placed in individual red cylinders (8 cm in diameter, 7.5 cm tall) and thermal hyperalgesia was confirmed by a baseline reading with IR of 20. Three measurements were performed on each hindpaw of each mouse. A positive trial was defined as sudden paw withdrawal, flinching and/or paw licking induced by the infrared light. Measurements were performed before CFA injection, and at 3+4 days after CFA injection. At day 3, the measurements were performed before treatment, as well as 1, 5 and 21 hours after treatment. Peptide and vehicle were administered s.c. (10 μL/g)), and at a concentration of 0 or 10 μmol/kg. Statistical analysis was performed using GraphPad Prism 6.0. Two-way RM ANOVA followed by Bonferroni's post-hoc test. Significance level set to p<0.05.

[2] = tested on: inflammatory pain (CFA model); test: Complete Freund's Adjuvant (CFA) model of inflammatory pain, von Frey; assay type: in vivo, mice; settings: for relief of evoked pain (paw withdrawal threshold): day 2 after CFA
Description: Inflammatory pain: Animals were habituated to the experimental room for a minimum of 60 min before initiation of the experiment. Mechanical pain threshold was determined by von Frey measurements of both hind paws. Injury was induced on the right hind paw, whereas the contralateral left hind paw was used as internal control of the animal. Von Frey filaments ranging from 0.04 to 2 g (g=gram-forces) (0.04, 0.07, 0.16, 0.4, 0.6, 1.0, 1.4, 2.0) were used for determination of mechanical pain threshold. In the current experiment filaments in ascending order were applied to the frontocentral plantar surface of the hind paws. Mice were placed in PVC plastic boxes (11.5 cm×14 cm) on a wire mesh, and allowed 30 min habituation prior of […]. Each von Frey hair was applied five times with adequate resting periods between each application and number of withdrawals recorded. The withdrawal threshold was determined as the von Frey filament eliciting at least 3 positive trials out of the 5 applications in two consecutive filaments. A positive trial was defined as sudden paw withdrawal, flinching and/or paw licking induced by the filament. The inflammatory pain was induced by injection of 50 μL undiluted Complete Freund's Adjuvant (CFA) (F5881, Sigma) unilaterally into the intraplantar surface of the right hind paw, whereas control mice were injected with the same amount of 0.9% saline (B. Braun, Germany). All intraplantar injections were performed with and insulin needle (0.3 mL BD Micro-Fine) while the animal was under isoflurane anesthesia (2%) for maximum 60 seconds. Von Frey was applied up to 11 days after unilateral CFA injection depending on the experiment. […] Statistical analysis was performed using GraphPad Prism 6.0. Two-way RM ANOVA followed by Bonferroni's post-hoc test. Significance level set to p<0.05.
Inflammatory pain (CFA model): Animals were habituated to the experimental room for a minimum of 60 min before initiation of the experiment. Mechanical pain threshold was determined by von Frey measurements of both hind paws. Injury was induced on the right hind paw, whereas the contralateral left hind paw was used as internal control of the animal.
Von Frey filaments ranging from 0.04 to 2 g (g=gram-forces) (0.04, 0.07, 0.16, 0.4, 0.6, 1.0, 1.4, 2.0) were used for determination of mechanical pain threshold. In the current experiment filaments in ascending order were applied to the frontocentral plantar surface of the hind paws. Mice were placed in PVC plastic boxes (11.5 cm×14 cm) on a wire mesh, and allowed 30 min habituation prior of testing. Each von Frey hair was applied five times with adequate resting periods between each application and number of withdrawals recorded. The withdrawal threshold was determined as the von Frey filament eliciting at least 3 positive trials out of the 5 applications in two consecutive filaments. A positive trial was defined as sudden paw withdrawal, flinching and/or paw licking induced by the filament.
The inflammatory pain was induced by injection of 50 μL undiluted Complete Freund's Adjuvant (CFA) (F5881, Sigma) unilaterally into the intraplantar surface of the right hind paw, whereas control mice were injected with the same amount of 0.9% saline (B. Braun, Germany). All intraplantar injections were performed with an insulin needle (0.3 mL BD Micro-Fine) while the animal was under isoflurane anesthesia (2%) for maximum 60 seconds. Von Frey was applied up to 6 days after unilateral CFA injection depending on the experiment. The peptides were administered s.c. (10 μL/g)), and at different concentrations (0.4 and 2 μmol/kg). Statistical analysis was performed using GraphPad Prism 6.0. Two-way RM ANOVA followed by Dunnett's post-hoc test. Significance level set to p<0.05.

CCCCCCCCCCCCCC(=O)N(CCOCCOCCC(=O)N[C@@H](Cc1c[nH]cn1)C(=O)N[C@@H](Cc1c[nH]c2ccccc12)C(=O)N[C@@H](CC(C)C)C(=O)N[C@@H](CCCCN)C(=O)N[C@H](C(=O)O)C(C)C)CCOCCOCCC(=O)N[C@@H](Cc1c[nH]cn1)C(=O)N[C@@H](Cc1c[nH]c2ccccc12)C(=O)N[C@@H](CC(C)C)C(=O)N[C@@H](CCCCN)C(=O)N[C@H](C(=O)O)C(C)C [myr-NPEG4-(HWLKV)2]
pain relief (paw withdrawal latency), sensitized paw ([1]; 5 hours): less pronounced
paw withdrawal latency, contralateral (healthy) paw ([1]; day 3 after CFA): no significant changes
paw withdrawal latency, sensitized (ipsilateral) paw ([1]; day 3 after CFA): highly significant increase in paw withdrawal latency
pain relief (paw withdrawal latency), sensitized paw ([1]; following day (21 h)): fully dissolved
paw withdrawal threshold of uninjured contralateral paw ([2]; CFA model, Example 7): remained unaltered
relief of evoked pain (paw withdrawal threshold) ([2]; intrathecal 20 μM, 7 μL, 1 and 5 h): significant pain relief at 1 hour and 5 hours
relief of evoked pain (paw withdrawal threshold) ([2]; intrathecal 20 μM, 7 μL, 24 h): no effect 24 hours after administration
relief of evoked pain (paw withdrawal threshold), lipid variants ([2]; s.c. 2.0 μmol/kg in PBS, day 2-5 after CFA, tested 2 and 5 h): full and highly significant pain relief
relief of evoked pain (paw withdrawal threshold) ([2]; s.c. 2 μmol/kg, tested 1, 5, 24 h): significant pain relief when tested 1 hour post injection
relief of evoked pain (paw withdrawal threshold), PDZ motif variants ([2]; s.c. 2 μmol/kg, day 5 after CFA): relieved pain
relief of evoked pain (paw withdrawal threshold) ([2]; s.c. 10 μmol/kg, tested 1, 5, 24 h): significant pain relief when tested 1 hour post injection
relief of evoked pain (paw withdrawal threshold) ([2]; s.c. 50 μmol/kg, tested 1, 5, 24 h): significant pain relief when tested 1 hour post injection; also recorded: significant pain relief up to 5 hours post injection
